Data published in patent publication US5981255A, “Alkaline protease, process for the production thereof, use thereof, and microorganism producing the same” (priority 1995, dated 1999).
Like-named read-outs stand apart in the source and are kept apart here.

System: alkaline protease API-26 produced by Bacillus sp. SD 114 (FERM BP-5736)
Assay type: biochemical
Procedure: Add 50 μl of the enzyme solution diluted appropriately to 500 μl of 50 mM Atkins-Pantin borate buffer, pH10, and pre-incubate at 30° C. for 3 to 5 minutes. To this solution, add 500 μl of 2% Hammarsten*s casein solution, pH 10, and after 10 minutes, stop the reaction by adding 2 ml of trichloroacetic acid (TCA) solution (0.032 M TCA solution adjusted to pH 4 with acetate buffer). Leave at 30° C. for more than 10 minutes, and filter with paper filter No.2 (Toyo Roshi). To 1 ml of filtrate add 5 ml of 0.4 M sodium carbonate and 1 ml of phenol reagent diluted 6-fold with water. Leave at 30° C. for 20 minutes for coloring, and then determine the absorbance at 660 nm. The unit of the protease activity is described by the katal. One katal is defined as the activity that the protease reacting with casein as a substrate at pH 10 and at 30° C. produces a degradation product with the absorbance at 660 nm equivalent to one mole of tyrosine.
Effects of various inhibitors against this enzyme were investigated according to the following conditions and procedure:
A solution containing this enzyme at about 20 nkatal/ml in 50 mM borate buffer, pH 10 was prepared. To this solution, EDTA, p-mercuribenzoic acid (PCMV) or phenylmethanesulfonyl fluoride (PMSF) was added at a concentration shown in Table 4. After incubating at 30° C. for 30 minutes, the enzyme activity was determined.

`O=C(O)CN(CCN(CC(=O)O)CC(=O)O)CC(=O)O` [EDTA, ethylenediaminetetraacetic acid] was tested, and the “Activity (relative activity, enzyme with no inhibitor = 100%)” value (pH 10) was 99.

With `O=C(O)c1cc[c]([Hg][OH])cc1` [PCMV, p-mercuribenzoic acid] the “Activity (relative activity, enzyme with no inhibitor = 100%)” value (PCMV 1 mM, 50 mM borate buffer pH 10, incubated at 30° C. for 30 minutes, enzyme about 20 nkatal/ml) was 100%.
